Patent EP4786469A1, “TRIAZOLE-CONTAINING COMPOUND, AND PREPARATION METHOD AND USE THEREFOR” (Tuojie Biotech (Shanghai) Co., Ltd., priority 2023, dated 2025)

Each molecule was assayed against human recombinant αvβ6 protein (Homo sapiens, UniProt P06756+P18564) (assay: αvβ6 binding assay using fluorescence polarization (FP), competition with a fluorescently labeled RGD peptide). Details: 12 concentration points, highest 10 µM, read-out: αvβ6 IC50.
Procedure: αvβ6 binding assay using fluorescence polarization (FP) method The analysis was based on competition with a fluorescently labeled RGD peptide for binding to αvβ6. The binding abilities of the test compounds were evaluated and screened according to FP value changes.
The test compounds (3.5 µL) were added to a 384-well black plate. For each test compound, 12 concentration points were set. The highest concentration was 10 µM, and was serially diluted 3-fold. DMSO control wells were used to determine the maximum signal, and 500 nM compound CWHM-12 [drawing 318]
HY-18644) control wells were used as the minimum signal.Then, 3.5 µL of a 4× human recombinant αvβ6 protein working solution (Acrobiosystem) was added. After 15 min of incubation at room temperature, 7 µL of a 2× fluorescent RGD peptide solution (Sangon Biotech) was added to each well. After 1 h of incubation at room temperature, FP signals were read using Envision. GraphPad Prism was used to fit inhibition curves and calculate IC50 values.
The IC50 values (Z factor > 0.5) were calculated using the following formula: Curve fitting formula: Y = Bottom + (Top - Bottom)/(1 + 10^((LogIC50 - X) × Hill Slope)) X: logarithmic value of inhibitor concentration; Y: inhibition percentage; Bottom: minimum response; Top: maximum response; Hill Slope: curve slope. Table 1. Data on the abilities of the compounds (III-h')-(III-m') of the present disclosure to bind to αvβ6

Chain of human recombinant αvβ6 protein (P06756 31-992 limits assumed): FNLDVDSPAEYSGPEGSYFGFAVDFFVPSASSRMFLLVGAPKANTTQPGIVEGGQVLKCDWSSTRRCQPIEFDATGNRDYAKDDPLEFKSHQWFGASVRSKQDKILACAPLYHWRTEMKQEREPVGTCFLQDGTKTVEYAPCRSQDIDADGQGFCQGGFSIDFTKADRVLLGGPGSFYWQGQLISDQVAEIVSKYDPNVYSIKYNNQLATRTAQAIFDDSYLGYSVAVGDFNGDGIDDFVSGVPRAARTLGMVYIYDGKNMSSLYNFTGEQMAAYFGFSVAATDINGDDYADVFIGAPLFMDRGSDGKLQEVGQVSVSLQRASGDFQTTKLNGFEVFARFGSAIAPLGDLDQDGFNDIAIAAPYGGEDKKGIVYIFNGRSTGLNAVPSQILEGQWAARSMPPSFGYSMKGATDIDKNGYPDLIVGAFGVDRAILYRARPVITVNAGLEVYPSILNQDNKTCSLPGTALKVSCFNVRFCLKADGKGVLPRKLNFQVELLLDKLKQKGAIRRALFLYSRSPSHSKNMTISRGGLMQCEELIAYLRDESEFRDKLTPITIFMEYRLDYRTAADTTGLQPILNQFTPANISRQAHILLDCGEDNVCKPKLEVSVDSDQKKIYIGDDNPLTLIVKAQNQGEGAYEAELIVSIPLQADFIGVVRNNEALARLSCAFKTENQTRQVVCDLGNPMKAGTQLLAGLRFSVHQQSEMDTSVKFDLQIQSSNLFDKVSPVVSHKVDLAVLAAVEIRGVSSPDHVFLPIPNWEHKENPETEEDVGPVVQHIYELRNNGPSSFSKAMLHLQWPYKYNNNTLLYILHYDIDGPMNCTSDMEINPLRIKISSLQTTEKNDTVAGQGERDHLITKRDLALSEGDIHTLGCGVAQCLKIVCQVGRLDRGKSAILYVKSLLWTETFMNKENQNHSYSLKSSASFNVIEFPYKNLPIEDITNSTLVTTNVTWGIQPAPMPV
Chain of human recombinant αvβ6 protein (P18564 22-707 limits assumed): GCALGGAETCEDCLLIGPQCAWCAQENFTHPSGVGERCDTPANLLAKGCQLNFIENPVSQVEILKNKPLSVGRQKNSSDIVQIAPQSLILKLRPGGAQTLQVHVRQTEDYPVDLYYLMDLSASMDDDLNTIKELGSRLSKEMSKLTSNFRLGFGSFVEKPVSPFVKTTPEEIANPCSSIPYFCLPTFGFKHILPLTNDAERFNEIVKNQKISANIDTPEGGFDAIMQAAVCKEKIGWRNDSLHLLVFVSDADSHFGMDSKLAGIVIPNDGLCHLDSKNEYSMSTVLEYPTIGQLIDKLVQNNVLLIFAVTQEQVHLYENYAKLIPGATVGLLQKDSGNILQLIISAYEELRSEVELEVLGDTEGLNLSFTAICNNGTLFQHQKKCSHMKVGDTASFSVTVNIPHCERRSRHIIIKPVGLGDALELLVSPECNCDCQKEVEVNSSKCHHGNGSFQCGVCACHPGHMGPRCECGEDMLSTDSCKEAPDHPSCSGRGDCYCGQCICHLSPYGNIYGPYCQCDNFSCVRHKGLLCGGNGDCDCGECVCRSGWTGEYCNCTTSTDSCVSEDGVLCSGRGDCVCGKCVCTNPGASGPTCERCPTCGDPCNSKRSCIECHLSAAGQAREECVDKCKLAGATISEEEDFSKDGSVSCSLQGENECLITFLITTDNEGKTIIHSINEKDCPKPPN

Row | SMILES | IC50
1 | [N-]=[N+]=NCCOCCOCCOCCOCCOc1ccc(-c2ccc([C@H](CC(=O)O)NC(=O)CNC(=O)CCCc3ccc4c(n3)NCCC4)cc2)c2ccccc12 [III-k'] | 2.29 nM
2 | [N-]=[N+]=NCCOCCOCCOCCOCCOc1ccc(-c2ccc([C@H](CC(=O)O)NC(=O)CNC(=O)CCc3ccc4c(n3)NCCC4)cc2)c2ccccc12 [III-l'] | 1.67 nM
3 | [N-]=[N+]=NCCOCCOCCOCCOCCOc1ccc(-c2ccc([C@H](CC(=O)O)NC(=O)CNC(=O)CCCNc3cc4c(cn3)CCCC4)cc2)c2ccccc12 [III-m'] | 1.47 nM
4 | Cc1ccnc(NCCCC(=O)NCC(=O)N[C@@H](CC(=O)O)c2ccc(-c3ccc(OCCOCCOCCOCCOCCN=[N+]=[N-])c4ccccc34)cc2)c1 [SM6.1-αvβ6, reference compound] | 1.6 nM

Same assay, conditions: read-out: αvβ6 IC50, 12 concentration points, highest 10 µM

Row | SMILES | IC50
5 | Cc1ccnc(NCCOC(=O)NCC(=O)N[C@@H](CC(=O)O)c2ccc(-c3ccc(OCCOCCOCCOCCOCCN=[N+]=[N-])c4ccccc34)cc2)c1 [III-h'] | 0.856 nM
6 | Cc1ccnc(NCCNC(=O)NCC(=O)N[C@@H](CC(=O)O)c2ccc(-c3ccc(OCCOCCOCCOCCOCCN=[N+]=[N-])c4ccccc34)cc2)c1 [III-i'] | 2.47 nM
7 | [N-]=[N+]=NCCOCCOCCOCCOCCOc1ccc(-c2ccc([C@H](CC(=O)O)NC(=O)CNC(=O)CCCNc3nccs3)cc2)c2ccccc12 [III-j'] | 1.98 nM
